The numbers were not newly measured in US8420593B1, “Compositions and methods for regulating membrane potential” (priority 2006, dated 2013), which cites them from elsewhere.

Where a name gives a salt, the structure may show the parent alone. Read-outs that look alike come from different tables or passages of the source.

The subject of data set [1] is potassium currents in PC12 cells.
For data set [2], the system named is spinal cord injury. The conditions noted are these: days 25, 26 and 27.
Data set [3] deals with spinal cord injury.
Data set [4] concerns chronic spinal cord injury. The conditions noted are these: in vivo.

On to `CCCN(c1ccncc1F)n1cc(C)c2ccccc21` [HP184, N-[N-propyl]-N-[3-fluoro-4-pyridinyl]-1H-3-methylindole-1-amine hydrochloride], for which, in data set [1], the “activity on potassium currents” value is on record as “voltage dependent blocker of potassium currents”. The “activity on sodium channels” value in the data set on sodium channels was “use- and frequency dependent blocker of sodium channels”. In addition, in the data set on spinal cord injury [2] (3, 10 and 20 mg/kg, po, established (25 day post injury) injury, mild intensity), the “motor function (open field walking analysis)” value is “significantly improved motor function”. The “motor function (open field walking)” value in the data set with spinal cord injury [3] (3 mg/kg, po, long-standing (35 day post injury) injury, moderate intensity) is reported as “significantly improved motor function”. In addition, the “improvement in walking ability, multiple dose studies” value with spinal cord injury [3] (once a day oral dosing at 3, 1 and 0.3 mg/kg, moderately injured rats, compression model) was “confirmed the effectiveness”.
On to `Nc1ccncc1` [4-AP, 4-aminopyridine], for which, in the data set with spinal cord injury [2] (0.6 mg/kg, ip, compared with HP184), the “motor function (open field walking analysis)” value is “This improvement was equaled by the improvement observed with 4-AP”. The “side effects associated with central nervous system activation” value in data set [4] is “restlessness, confusion, and infrequently reported findings of generalized tonic-clonic seizure”.
